Values after ≈ are worked out from the molar mass of the structure shown.
System: Staphylococcus aureus (ATCC 29213)
Assay: Antimicrobial activity against S. aureus (growth inhibition, OD 620 nm)
Assay type: cell-based
Conditions: for MIC: minimum concentration to inhibit about 100 percent bacterial growth; for IC50: individual permethylated peptides
Procedure: The two types of libraries of positional libraries of Example 5 were also scanned against Staphylococcus aureus a Gram-positive bacterium. Concentrations of those 5× permethylated peptide mixtures that inhibited cellular growth by 50 percent (IC50) values were determined.
The permethylated amino acid and peptides were screened against S. aureus, as described before and IC50 and MIC (minimum inhibitory concentration; minimum concentration needed to inhibit about 100 percent bacterial growth) values were determined.
Staphylococcus aureus (ATCC 29213) were grown overnight (about 18 hours) at 37° C. in Mueller-Hinton (MH) broth. This culture was reinoculated and incubated at 37° C. to reach the exponential phase of bacterial growth; i.e., a final bacterial suspension containing about 10^5 to 5×10^5 colony-forming units (CFU)/ml. The concentration of cells was established by plating 100 μl of different dilutions of the culture solution (e.g., 10^-2, 10^-3 and 10^-4) onto solid agar plates. Following an overnight (about 18 hours) incubation at 37° C., the CFU thus formed were counted on each agar plate.
96-Well tissue culture plates were utilized, with eight wells per plate containing only medium as control blanks, whereas eight other wells contained medium plus cells as a positive growth control. These controls were used to detect possible medium contamination and to provide a measure of uninhibited growth of the microorganisms.
For determination of IC50 values (concentrations necessary to inhibit 50 percent growth of bacteria), peralkylated oligopeptide sets were added to the bacterial suspension at concentrations noted before. The plates were incubated overnight (about 18 hours) at 37° C., and the optical density (OD) determined at 620 nm after different times of incubation. IC50 Values were then determined from the OD data.

[1] = Staphylococcus aureus, ATCC29213, Assay 1
[2] = Staphylococcus aureus, ATCC29213, Assay 2

Row | Compound | MIC (Assay 1) [µM] | MIC (Assay 2) [µM] | IC50 (Assay 1) [nM] | IC50 (Assay 2) [nM] | IC50 [1] [nM] | IC50 [2] [nM] | MIC [1] [µM]
1 | CNC(=O)[C@H](Cc1ccccc1)[N+](C)(C)C [PerA--F, permethylated Phe N-methylamide] | > 500 | > 500 |  |  |  |  | 
2 | Ac-FFFFFF-NH2 [N--Ac--hexaPhe, N-acetyl hexaPhe amide] | > 500 | > 500 | > 500000 | > 500000 |  |  | 
3 | CC[C@H]1OC(=O)[C@H](C)[C@@H](O[C@H]2C[C@@](C)(OC)[C@@H](O)[C@H](C)O2)[C@H](C)[C@@H](O[C@@H]2O[C@H](C)C[C@H](N(C)C)[C@H]2O)[C@](C)(O)C[C@@H](C)C(=O)[C@H](C)[C@@H](O)[C@]1(C)O [Erythromycin, erythromycin] |  | 0.5 (≈ 0.367 µg/mL) |  |  | 184 | 134 | 0.5 (≈ 0.367 µg/mL)
4 | Cc1onc(-c2ccccc2)c1C(=O)N[C@@H]1C(=O)N2[C@@H]1SC(C)(C)[C@@H]2C(=O)O [Oxacillin, oxacillin] |  | 0.125 (≈ 0.0502 µg/mL) |  |  | 42 | 370 | 0.125 (≈ 0.0502 µg/mL)

From patent publication US5846731A, “Peralkylated oligopeptide mixtures” (Torry Pines Institute for Molecular Studies, priority 1993, dated 1998)
